Measurements as given in US7994140B2, “Classes of compounds that interact with GPCRs” (Alchemia Limited, priority 2002, dated 2011).

How the values were obtained:
MC4 = target: T1, MC4 (Homo sapiens, UniProt P32245); assay: GPCR radioligand binding (RLB) assay, melanocortin MC4, [125I]NDP-αMSH; details: 10 micromolar compound; recombinant human receptor membranes (HEK 293)
T1 construct: purchased Perkin Elmer BioSignal; host or cells: HEK 293
How it was run: (§1)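 Competition binding against radioligand ([125I]NDP-αMSH for MC4, [125I]SST-14 for SST5) on membranes of HEK 293 cells carrying the human receptor; buffer and incubation time optimized per receptor. Filtration through 0.5% PEI-treated glass fiber, washing, then scintillation counting.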

SST5 = target: T2, SST5 (Homo sapiens, UniProt P35346); assay: GPCR radioligand binding (RLB) assay, somatostatin SST5, [125I]SST-14; details: 10 micromolar compound; recombinant human receptor membranes (HEK 293)
T2 construct: purchased Perkin Elmer BioSignal; host or cells: HEK 293
How it was run: as §1

T1 sequence (P32245 whole entry): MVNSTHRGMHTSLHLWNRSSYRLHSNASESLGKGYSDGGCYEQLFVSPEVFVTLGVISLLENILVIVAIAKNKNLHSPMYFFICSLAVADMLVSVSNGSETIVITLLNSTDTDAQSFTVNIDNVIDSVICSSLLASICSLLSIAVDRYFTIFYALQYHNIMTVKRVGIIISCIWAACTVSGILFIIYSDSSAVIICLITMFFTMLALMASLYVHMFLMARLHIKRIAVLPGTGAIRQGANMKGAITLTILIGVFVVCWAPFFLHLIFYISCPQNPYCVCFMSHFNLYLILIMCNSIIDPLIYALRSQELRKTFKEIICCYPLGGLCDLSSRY
T2 sequence (P35346 whole entry): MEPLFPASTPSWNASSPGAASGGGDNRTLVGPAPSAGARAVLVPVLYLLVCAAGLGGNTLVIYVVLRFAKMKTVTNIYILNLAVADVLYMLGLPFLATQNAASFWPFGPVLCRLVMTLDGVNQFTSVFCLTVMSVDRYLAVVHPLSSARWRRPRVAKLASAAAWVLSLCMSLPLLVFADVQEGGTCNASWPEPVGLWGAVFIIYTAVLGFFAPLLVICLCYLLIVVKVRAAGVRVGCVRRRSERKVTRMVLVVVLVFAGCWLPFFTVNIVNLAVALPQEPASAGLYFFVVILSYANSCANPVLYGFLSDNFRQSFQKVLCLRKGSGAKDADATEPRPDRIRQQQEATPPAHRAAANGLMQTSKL

## COC[C@H]1OC(OCCc2ccccc2)[C@H](NC(=O)CCCNC(=N)N)[C@@H](OCc2ccc(-c3ccccc3)cc2)[C@@H]1O (stereo partly drawn) [Compound 49]
MC4
  MC4 inhibition at 10 micromolar: + (Indicates inhibition greater than . . . 50%)
SST5
  SST5 inhibition at 10 micromolar: + (Indicates inhibition greater than . . . 50%)

## COC[C@H]1OC(OCc2ccc(-c3ccccc3)cc2)[C@H](NC(=O)CCCN)[C@@H](OCc2ccc(-c3ccccc3)cc2)[C@@H]1O (stereo partly drawn) [Compound 53]
MC4
  MC4 inhibition at 10 micromolar: + (Indicates inhibition greater than . . . 50%)
SST5
  SST5 inhibition at 10 micromolar: + (Indicates inhibition greater than . . . 50%)

## CO[C@H]1[C@H](O)[C@@H](COCc2ccc(-c3ccccc3)cc2)OC(OCc2ccc(-c3ccccc3)cc2)[C@@H]1NC(=O)CNC(=N)N (stereo partly drawn) [Compound 56]
MC4
  MC4 inhibition at 10 micromolar: + (Indicates inhibition greater than . . . 50%)
SST5
  SST5 inhibition at 10 micromolar: + (Indicates inhibition greater than . . . 50%)

## CO[C@H]1[C@H](O)[C@@H](COCc2ccc(-c3ccccc3)cc2)OC(OCc2ccc(-c3ccccc3)cc2)[C@@H]1NC(=O)CCNC(=N)N (stereo partly drawn) [Compound 57]
MC4
  MC4 inhibition at 10 micromolar: + (Indicates inhibition greater than . . . 50%)
SST5
  SST5 inhibition at 10 micromolar: + (Indicates inhibition greater than . . . 50%)

## COC1C(O)C(COCc2ccc3ccccc3c2)OC(OCc2ccc(-c3ccccc3)cc2)C1NC(=O)CCCN (stereo not drawn) [Compound 61]
MC4
  MC4 inhibition at 10 micromolar: + (Indicates inhibition greater than . . . 50%)
SST5
  SST5 inhibition at 10 micromolar: + (Indicates inhibition greater than . . . 50%)

## COC1C(O)C(COCc2ccc(-c3ccccc3)cc2)OC(OCc2ccc3ccccc3c2)C1NC(=O)CCCN (stereo not drawn) [Compound 69]
MC4
  MC4 inhibition at 10 micromolar: + (Indicates inhibition greater than . . . 50%)
SST5
  SST5 inhibition at 10 micromolar: + (Indicates inhibition greater than . . . 50%)

## COC1C(O)C(COCc2ccc3ccccc3c2)OC(OCc2ccc3ccccc3c2)C1NC(=O)CCCN (stereo not drawn) [Compound 73]
MC4
  MC4 inhibition at 10 micromolar: + (Indicates inhibition greater than . . . 50%)
SST5
  SST5 inhibition at 10 micromolar: + (Indicates inhibition greater than . . . 50%)

## COC1C(O)C(COCc2ccc(Cl)cc2)OC(OCc2ccc3ccccc3c2)C1NC(=O)CCCN (stereo not drawn) [Compound 77]
MC4
  MC4 inhibition at 10 micromolar: + (Indicates inhibition greater than . . . 50%)
SST5
  SST5 inhibition at 10 micromolar: + (Indicates inhibition greater than . . . 50%)

## COC1C(O)C(COCc2ccc3ccccc3c2)OC(OCc2ccccc2)C1NC(=O)CNC(=N)N (stereo not drawn) [Compound 80]
MC4
  MC4 inhibition at 10 micromolar: + (Indicates inhibition greater than . . . 50%)
SST5
  SST5 inhibition at 10 micromolar: + (Indicates inhibition greater than . . . 50%)

## COC1C(O)C(COCc2ccc(-c3ccccc3)cc2)OC(OCc2ccc(Cl)cc2)C1NC(=O)CCNC(=N)N (stereo not drawn) [Compound 84]
MC4
  MC4 inhibition at 10 micromolar: + (Indicates inhibition greater than . . . 50%)
SST5
  SST5 inhibition at 10 micromolar: + (Indicates inhibition greater than . . . 50%)

## COC1C(O)C(COCc2ccc(-c3ccccc3)cc2)OC(OCc2ccc(Cl)cc2)C1NC(=O)CCCNC(=N)N (stereo not drawn) [Compound 86]
MC4
  MC4 inhibition at 10 micromolar: + (Indicates inhibition greater than . . . 50%)
SST5
  SST5 inhibition at 10 micromolar: + (Indicates inhibition greater than . . . 50%)

## COC1C(O)C(COCc2ccc3ccccc3c2)OC(OCc2ccc(Cl)cc2)C1NC(=O)CNC(=N)N (stereo not drawn) [Compound 87]
MC4
  MC4 inhibition at 10 micromolar: + (Indicates inhibition greater than . . . 50%)
SST5
  SST5 inhibition at 10 micromolar: + (Indicates inhibition greater than . . . 50%)

## COC1C(O)C(COCc2ccc3ccccc3c2)OC(OCc2ccc(Cl)cc2)C1NC(=O)CCNC(=N)N (stereo not drawn) [Compound 88]
MC4
  MC4 inhibition at 10 micromolar: + (Indicates inhibition greater than . . . 50%)
SST5
  SST5 inhibition at 10 micromolar: + (Indicates inhibition greater than . . . 50%)

## COC1C(O)C(COCc2ccc3ccccc3c2)OC(OCc2ccc(Cl)cc2)C1NC(=O)CCCN (stereo not drawn) [Compound 89]
MC4
  MC4 inhibition at 10 micromolar: + (Indicates inhibition greater than . . . 50%)
SST5
  SST5 inhibition at 10 micromolar: + (Indicates inhibition greater than . . . 50%)

## COC1C(O)C(COCc2ccc3ccccc3c2)OC(OCc2ccc(Cl)cc2)C1NC(=O)CCCNC(=N)N (stereo not drawn) [Compound 90]
MC4
  MC4 inhibition at 10 micromolar: + (Indicates inhibition greater than . . . 50%)
SST5
  SST5 inhibition at 10 micromolar: + (Indicates inhibition greater than . . . 50%)

## CO[C@H]1[C@H](O)[C@@H](COCc2ccc(Cl)cc2)OC(OCc2ccc(Cl)cc2)[C@@H]1NC(=O)CCCN (stereo partly drawn) [Compound 94]
MC4
  MC4 inhibition at 10 micromolar: + (Indicates inhibition greater than . . . 50%)
SST5
  SST5 inhibition at 10 micromolar: + (Indicates inhibition greater than . . . 50%)

## CO[C@H]1[C@H](O)[C@@H](COCc2ccc(-c3ccccc3)cc2)OC(OCCc2ccccc2)[C@@H]1NC(=O)CCCN (stereo partly drawn) [Compound 98]
MC4
  MC4 inhibition at 10 micromolar: + (Indicates inhibition greater than . . . 50%)
SST5
  SST5 inhibition at 10 micromolar: + (Indicates inhibition greater than . . . 50%)

## CO[C@H]1[C@H](O)[C@@H](COCc2ccc3ccccc3c2)OC(OCCc2ccccc2)[C@@H]1NC(=O)CCCN (stereo partly drawn) [Compound 102]
MC4
  MC4 inhibition at 10 micromolar: + (Indicates inhibition greater than . . . 50%)
SST5
  SST5 inhibition at 10 micromolar: + (Indicates inhibition greater than . . . 50%)

## CO[C@H]1[C@H](O)[C@@H](COCc2ccc3ccccc3c2)OC(OCCc2ccccc2)[C@@H]1NC(=O)CCCNC(=N)N (stereo partly drawn) [Compound 103]
MC4
  MC4 inhibition at 10 micromolar: + (Indicates inhibition greater than . . . 50%)
SST5
  SST5 inhibition at 10 micromolar: + (Indicates inhibition greater than . . . 50%)

## CO[C@H]1[C@H](O)[C@@H](COCc2ccc(Cl)cc2)OC(OCCc2ccccc2)[C@@H]1NC(=O)CCCN (stereo partly drawn) [Compound 106]
MC4
  MC4 inhibition at 10 micromolar: + (Indicates inhibition greater than . . . 50%)
SST5
  SST5 inhibition at 10 micromolar: + (Indicates inhibition greater than . . . 50%)

## CSC1OC(COCc2ccccc2)C(O)C(OCc2ccccc2)C1NC(=O)CNC(=N)N (stereo not drawn) [Compound 120]
MC4
  MC4 inhibition at 10 micromolar: + (Indicates inhibition greater than . . . 50%)
SST5
  SST5 inhibition at 10 micromolar: + (Indicates inhibition greater than . . . 50%)

## CSC1OC(COCc2ccccc2)C(O)C(OCc2ccccc2)C1NC(=O)CCN (stereo not drawn) [Compound 121]
MC4
  MC4 inhibition at 10 micromolar: + (Indicates inhibition greater than . . . 50%)
SST5
  SST5 inhibition at 10 micromolar: + (Indicates inhibition greater than . . . 50%)

## CSC1OC(COCc2ccccc2)C(O)C(OCc2ccccc2)C1NC(=O)CCNC(=N)N (stereo not drawn) [Compound 122]
MC4
  MC4 inhibition at 10 micromolar: + (Indicates inhibition greater than . . . 50%)
SST5
  SST5 inhibition at 10 micromolar: + (Indicates inhibition greater than . . . 50%)

## CSC1OC(COCc2ccccc2)C(O)C(OCc2ccccc2)C1NC(=O)CCCNC(=N)N (stereo not drawn) [Compound 124]
MC4
  MC4 inhibition at 10 micromolar: + (Indicates inhibition greater than . . . 50%)
SST5
  SST5 inhibition at 10 micromolar: + (Indicates inhibition greater than . . . 50%)

## CSC1OC(COCc2ccc(Cl)cc2)C(O)C(OCc2ccccc2)C1NC(=O)CNC(=N)N (stereo not drawn) [Compound 126]
MC4
  MC4 inhibition at 10 micromolar: + (Indicates inhibition greater than . . . 50%)
SST5
  SST5 inhibition at 10 micromolar: + (Indicates inhibition greater than . . . 50%)

## CSC1OC(COCc2ccc(Cl)cc2)C(O)C(OCc2ccccc2)C1NC(=O)CCNC(=N)N (stereo not drawn) [Compound 128]
MC4
  MC4 inhibition at 10 micromolar: + (Indicates inhibition greater than . . . 50%)
SST5
  SST5 inhibition at 10 micromolar: + (Indicates inhibition greater than . . . 50%)

## CSC1OC(COCc2ccc(Cl)cc2)C(O)C(OCc2ccccc2)C1NC(=O)CCCN (stereo not drawn) [Compound 129]
MC4
  MC4 inhibition at 10 micromolar: + (Indicates inhibition greater than . . . 50%)
SST5
  SST5 inhibition at 10 micromolar: + (Indicates inhibition greater than . . . 50%)

## CSC1OC(COCc2ccc(Cl)cc2)C(O)C(OCc2ccccc2)C1NC(=O)CCCNC(=N)N (stereo not drawn) [Compound 130]
MC4
  MC4 inhibition at 10 micromolar: + (Indicates inhibition greater than . . . 50%)
SST5
  SST5 inhibition at 10 micromolar: + (Indicates inhibition greater than . . . 50%)

## CSC1OC(COCc2ccc(-c3ccccc3)cc2)C(O)C(OCc2ccccc2)C1NC(=O)CNC(=N)N (stereo not drawn) [Compound 132]
MC4
  MC4 inhibition at 10 micromolar: + (Indicates inhibition greater than . . . 50%)
SST5
  SST5 inhibition at 10 micromolar: + (Indicates inhibition greater than . . . 50%)

## CSC1OC(COCc2ccc(-c3ccccc3)cc2)C(O)C(OCc2ccccc2)C1NC(=O)CCN (stereo not drawn) [Compound 133]
MC4
  MC4 inhibition at 10 micromolar: + (Indicates inhibition greater than . . . 50%)
SST5
  SST5 inhibition at 10 micromolar: + (Indicates inhibition greater than . . . 50%)

## CSC1OC(COCc2ccc(-c3ccccc3)cc2)C(O)C(OCc2ccccc2)C1NC(=O)CCNC(=N)N (stereo not drawn) [Compound 134]
MC4
  MC4 inhibition at 10 micromolar: + (Indicates inhibition greater than . . . 50%)
SST5
  SST5 inhibition at 10 micromolar: + (Indicates inhibition greater than . . . 50%)

## CSC1OC(COCc2ccc(-c3ccccc3)cc2)C(O)C(OCc2ccccc2)C1NC(=O)CCCN (stereo not drawn) [Compound 135]
MC4
  MC4 inhibition at 10 micromolar: + (Indicates inhibition greater than . . . 50%)
SST5
  SST5 inhibition at 10 micromolar: + (Indicates inhibition greater than . . . 50%)

## CSC1OC(COCc2ccc(-c3ccccc3)cc2)C(O)C(OCc2ccccc2)C1NC(=O)CCCNC(=N)N (stereo not drawn) [Compound 136]
MC4
  MC4 inhibition at 10 micromolar: + (Indicates inhibition greater than . . . 50%)
SST5
  SST5 inhibition at 10 micromolar: + (Indicates inhibition greater than . . . 50%)
